In ChEMBL document CHEMBL3232884, “Design, synthesis, and biological evaluation of novel pyridine-bridged analogues of combretastatin-A4 as anticancer agents” (J Med Chem, 2014):
pIC50: −log10 of the molar value. Activity calls are given as the source filed them. The rule behind the calls is not given here.

Key:
MDA-MB-231 [1] = assay: Cytotoxicity against human MDA-MB-231 cells after 72 hrs by resazurin based fluorescence assay; assay type: functional, cell-based
HeLa [2] = assay: Cytotoxicity against human HeLa cells after 72 hrs by resazurin based fluorescence assay; assay type: functional, cell-based
A549 = assay: Cytotoxicity against human A549 cells after 72 hrs by resazurin based fluorescence assay; assay type: functional, cell-based
[3] = Plasma concentration in C57BL/6 mouse at 5 mg/kg, po after 1 hr; assay type: ADME, organism-based; set-up: dose 5 mg/kg, route oral
Chorioallantoic membrane = assay: Antiangiogenic activity in chicken embryo chorioallantoic membrane model assessed as inhibition of bFGF/VEGF-induced new vessel growth; assay type: functional, tissue-based; details: Gallus gallus
Tubulin (Bos taurus) [4] = target: T1, Tubulin (Bos taurus) (UniProt Q6B856+Q862L2+Q862F3); assay: Inhibition of bovine brain tubulin polymerization at 1 uM after 60 mins by spectrophotometric analysis
Tubulin (Homo sapiens) = Tubulin (Homo sapiens) (UniProt P68371+Q9H4B7+P0DPH7+P68366+Q13509+Q71U36+P04350+Q3ZCM7+P07437+P68363+Q9BQE3+Q6PEY2+Q13885+Q9BVA1+Q9BUF5); assay: Displacement of colchicine from tubulin (unknown origin) at 0.1 to 125 uM after 1 hr by HPLC-MS/MS analysis; assay type: protein-complex assay
Tubulin (Bos taurus) [5] = target: T1, Tubulin (Bos taurus); assay: Inhibition of bovine brain tubulin polymerization at 10 uM after 60 mins by spectrophotometric analysis
Tubulin (Bos taurus) [6] = target: T1, Tubulin (Bos taurus); assay: Induction of bovine brain tubulin polymerization at 1 uM after 60 mins by spectrophotometric analysis
HeLa [7] = assay: Antimicrotubule activity in human HeLa cells assessed as reduction of interphase microtubule network at 1 uM after 24 hrs by indirect immunofluorescence technique; assay type: functional, cell-based
MDA-MB-231 [8] = assay: Antimicrotubule activity in human MDA-MB-231 cells assessed as reduction of interphase microtubule network at 1 uM after 24 hrs by indirect immunofluorescence technique; assay type: functional, cell-based
HeLa [9] = assay: Cell cycle arrest in human HeLa cells assessed as accumulation at G0/G1 phase at 1 uM after 24 hrs using propidium iodide staining by flow cytometry (reference value: 61.60%); assay type: functional
[10] = Plasma concentration in C57BL/6 mouse at 5 mg/kg, po after 3 hrs; assay type: ADME, organism-based; set-up: dose 5 mg/kg, route oral

Compound | pIC50 (MDA-MB-231 [1]; Homo sapiens, MDA-MB-231, 72 h) | pIC50 (HeLa [2]; Homo sapiens, HeLa, 72 h) | pIC50 (A549; Homo sapiens, A549, 72 h) | other results
COc1ccc(-c2cccc(-c3ccc(OC)c(O)c3)n2)c(OC)c1 [listing 1 of 3 here] | – | – | – | pIC50 (MDA-MB-231 [1]; mda-mb-231): 8.27; pIC50 (HeLa [2]; hela): 8.59; pIC50 (A549; a549): 7.38
COc1ccc(-c2cccc(-c3cc(OC)c(OC)c(OC)c3)n2)cc1 | < 4.60 | < 4.30 | < 4.30 | –
COc1ccc(-c2cccc(-c3ccc(OC)cc3)n2)cc1 | 5.05 | 5.70 | < 4.00 | –
COc1cc(-c2cccc(-c3ccc(O)cc3)n2)cc(OC)c1OC | 5.00 | 5.10 | < 4.60 | –
COc1ccc(-c2ccc(-c3ccc(OC)cc3OC)nc2)c(OC)c1 | < 4.00 | < 4.30 | < 4.00 | –
COc1ccc(-c2cccc(-c3ccc(OC)c(O)c3)n2)c(OC)c1 [listing 2 of 3 here] | 8.34 | 8.85 | 7.36 | concentration at 1 h [3]: 9.2 ng/mL
COc1ccc(-c2cccc(-c3ccc(OC)c(OC)c3)n2)c(OC)c1 | 4.89 | < 4.30 | < 4.60 | –
COc1ccc(-c2cccc(-c3ccc(OC)c(O)c3)n2)c(OC)c1 [listing 3 of 3 here] | – | – | – | growth inhibition (GI) (Chorioallantoic membrane): Active; inhibition (Tubulin (Bos taurus) [4]): inactive; inhibition (Tubulin (Homo sapiens)): Active; inhibition (Tubulin (Bos taurus) [5]): 57%
COc1ccc(-c2cccc(-c3ccc(OC)c(OC)c3)n2)cc1OC | < 4.30 | < 4.60 | < 4.30 | –
COc1cc(OC)cc(-c2cccc(-c3ccc(OC)cc3OC)n2)c1 | < 4.60 | < 4.30 | < 4.60 | –
COc1ccc(-c2cccc(-c3ccc(O)cc3)n2)cc1OC | < 4.30 | 6.07 | < 4.00 | –
COc1ccc(-c2cccc(-c3ccccc3OC)n2)c(OC)c1 | < 4.60 | < 4.60 | < 4.30 | –
COc1ccc(-c2cccc(-c3cccc(OC)c3OC)n2)c(OC)c1 | < 4.30 | < 4.30 | < 4.30 | –
COc1ccc(-c2ccnc(-c3ccc(OC)cc3OC)c2)c(OC)c1 | < 4.30 | < 4.60 | < 4.30 | –
COc1cc(-c2ccc(Br)cn2)cc(OC)c1OC | 4.92 | 4.85 | < 4.60 | –
COc1ccc(-c2cccc(-c3cc(OC)c(OC)c(OC)c3)n2)cc1OC | 5.60 | 7.59 | < 4.30 | –
COc1ccc(-c2cccc(-c3ccc(OC)cc3OC)n2)c(OC)c1 | 7.12 | 7.96 | 7.10 | –

Compound | pIC50 (MDA-MB-231 [1]; Homo sapiens, MDA-MB-231, 72 h) | pIC50 (HeLa [2]; Homo sapiens, HeLa, 72 h) | pIC50 (A549; Homo sapiens, A549, 72 h) | other results
COc1cccc(-c2cccc(-c3ccc(OC)cc3OC)n2)c1 | 5.04 | 7.17 | 6.25 | –
COc1ccc(-c2cccc(-c3ccc(OC)cc3OC)n2)cc1 | 8.51 | 8.42 | 7.05 | growth inhibition (GI) (Chorioallantoic membrane): Active; inhibition (Tubulin (Bos taurus) [4]): inactive; Activity (Tubulin (Bos taurus) [6]): Active; Activity (HeLa [7]): Active; Activity (MDA-MB-231 [8]): Active; inhibition (Tubulin (Bos taurus) [5]): inactive
COc1ccc(-c2cccc(Br)n2)cc1 | 5.00 | 5.70 | 5.70 | –
COc1ccc(-c2cccc(-c3ccc(O)cc3)n2)c(OC)c1 | 4.76 | < 4.00 | 5.37 | –
COc1ccc(-c2cccc(Br)n2)c(OC)c1 | < 4.00 | < 4.30 | < 4.30 | –
COc1cc(-c2cccc(-c3cc(OC)c(OC)c(OC)c3)n2)cc(OC)c1OC | 4.96 | 6.00 | < 4.30 | –
COc1ccc(-c2cccc(-c3ccc(O)cc3)n2)cc1 | < 4.60 | < 4.30 | < 4.60 | –
COc1ccc(-c2cccc(Br)n2)cc1OC | < 4.60 | < 4.30 | < 4.60 | –
COc1ccc(-c2cccc(-c3c(OC)cc(OC)cc3OC)n2)c(OC)c1 | < 4.30 | < 4.60 | < 4.30 | –
COc1ccc(/C=C\c2cc(OC)c(OC)c(OC)c2)cc1O [COMBRETASTATIN A4] | 8.55 | 9.05 | 8.42 | Activity (HeLa [9]): 37%; concentration at 3 h [10]: 2.1 ng/mL; growth inhibition (GI) (Chorioallantoic membrane): Active; inhibition (Tubulin (Bos taurus) [4]): 35%; concentration at 1 h [3]: 2.3 ng/mL; Activity (HeLa [7]): Active; Activity (MDA-MB-231 [8]): Active; inhibition (Tubulin (Bos taurus) [5]): Active
COc1cc(-c2ccnc(-c3cc(OC)c(OC)c(OC)c3)c2)cc(OC)c1OC | 5.58 | 6.10 | 5.10 | –
COc1ccc(-c2cccc(-c3ccc(OC)c(OC)c3)n2)cc1 | < 4.60 | < 4.60 | < 4.60 | –
COc1cc(-c2ccc(-c3cc(OC)c(OC)c(OC)c3)nc2)cc(OC)c1OC | 4.96 | 5.57 | < 4.00 | –
COc1ccc(-c2ccc(-c3cc(OC)c(OC)c(OC)c3)nc2)cc1OC | < 4.30 | < 4.60 | < 4.30 | –
COc1cc(-c2cccc(Br)n2)cc(OC)c1OC | 5.22 | 4.92 | 5.05 | –
COc1ccc(-c2cccc(-c3c(OC)cccc3OC)n2)c(OC)c1 | < 4.00 | < 4.30 | < 4.00 | –
